Experimental data taken from patent US20230183216A1, “PYRIDIZIN-3(2H)-ONE DERIVATIVES” (Gilead Sciences, Inc., priority 2021, published 2023).

Experiments:
[1] = system: STAT1 (phosphorylated at Tyr701) in NCI-H1373 cells; test: Phospho-STAT1 (Tyr701) LANCE Ultra TR-FRET Detection Assay; type: cell-based; details: Homo sapiens, 48 hours, induction of pSTAT1, normalized to 10 uM positive control and DMSO, 4-parameter fit, read-out: NH1373 pSTAT1 EC50
Protocol: Phospho-STAT1 (Tyr701 LANCE Ultra TR-FRET Detection Assay
LANCE Ultra phospho-STAT1 (Tyr701) kits available from Perkin Elmer are designed for the detection of phosphorylated STAT1 in cell lysates using a simple, homogeneous LANCE Ultra sandwich assay (Cat. #TRF4028M). This assay is intended for assessing compound induction of endogenous levels of cellular STAT1 (phosphorylated at Tyr701) in NCI-H1373 cells. The NCI-H1373 cells are cultured in RPMI 1640 media containing 10% heat inactivated FBS, GlutaMAX, 1% Penicillin-Streptomycin. An Echo acoustic liquid handler is used to transfer 60 nanoliters of compound dilutions using the Echo Qualified, 384-well polypropylene microplate clear flat bottom source plates into a Greiner (#781080) cell culture microplate. NCI-H1373 cells are seeded into these compound-spotted culture plates at 30,000 cells/well in a 60 uL volume in growth media. The plates are incubated in a 5% CO2 humidified incubator at 37° C. for 48 hours. […] Briefly, 20 μL of supplemented lysis buffer is added to each well and allowed to shake for 1 hour at 400 rpm. Next, 5 ul of remixed antibody solutions (vol/vol) prepared in detection buffer are added to each well and allowed to incubate at room temperature overnight. After spinning the plate down at 300 rpm for […], the plate is read on an EnVision plate reader set up for Eu3+ Cryptate and fluorescence emission is measured at two different wavelengths (665 nm and 620 nm).

PARP7 = target: T1, PARP7 (Homo sapiens, UniProt Q7Z3E1); test: biochemical;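 also: MSD light signal quantifying PARP7 captured by a plate-immobilized probe, read after 1.5 h equilibration plus 1.5 h with SULFO-TAG anti-GST antibody at room temperature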
T1 sequence (Q7Z3E1 1-657): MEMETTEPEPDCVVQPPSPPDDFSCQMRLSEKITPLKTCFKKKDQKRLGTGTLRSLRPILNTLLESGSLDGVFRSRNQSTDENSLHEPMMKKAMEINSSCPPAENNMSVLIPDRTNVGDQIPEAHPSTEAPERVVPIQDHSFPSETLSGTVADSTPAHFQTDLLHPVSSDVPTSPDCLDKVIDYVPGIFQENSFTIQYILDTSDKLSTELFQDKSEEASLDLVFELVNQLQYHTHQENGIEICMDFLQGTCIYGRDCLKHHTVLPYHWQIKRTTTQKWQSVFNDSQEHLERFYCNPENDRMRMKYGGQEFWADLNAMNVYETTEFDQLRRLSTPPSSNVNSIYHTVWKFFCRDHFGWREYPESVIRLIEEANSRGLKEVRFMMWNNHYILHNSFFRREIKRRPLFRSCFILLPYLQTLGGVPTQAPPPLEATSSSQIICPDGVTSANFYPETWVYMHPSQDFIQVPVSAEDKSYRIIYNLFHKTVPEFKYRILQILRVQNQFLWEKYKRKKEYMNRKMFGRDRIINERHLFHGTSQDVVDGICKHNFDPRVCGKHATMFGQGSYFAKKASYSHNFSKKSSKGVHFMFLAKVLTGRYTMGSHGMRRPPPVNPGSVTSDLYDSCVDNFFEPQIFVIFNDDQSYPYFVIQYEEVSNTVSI

Row | IC50 (PARP7) | SMILES | EC50 [1]
1 | 2.32 nM | O=C(C[C@@H]1CCCCN1c1cc(C(F)(F)F)c(=O)[nH]n1)N1CCN(c2ncc(C(F)(F)F)cn2)CC1 [Example 30, (S)-6-(2-(2-oxo-2-(4-(5-(trifluoromethyl)pyrimidin-2-yl)piperazin-1-yl)ethyl)piperidin-1-yl)-4-(trifluoromethyl)pyridazin-3(2H)-one] | 779 nM
2 | 1.22 nM | O=C(OC/C=C/c1cc(C(F)(F)F)c(=O)[nH]n1)N1CCN(c2ncc(C(F)(F)F)cn2)CC1 [Example 14, (E)-3-(6-oxo-5-(trifluoromethyl)-1,6-dihydropyridazin-3-yl)allyl 4-(5-(trifluoromethyl)pyrimidin-2-yl)piperazine-1-carboxylate] | 1000 nM
3 | – | O=C(CCCCCc1cc(C(F)(F)F)c(=O)[nH]n1)N1CCN(c2ncc(C(F)(F)F)cn2)CC1 [Example 2, 6-(6-oxo-6-(4-(5-(trifluoromethyl)pyrimidin-2-yl)piperazin-1-yl)hexyl)-4-(trifluoromethyl)pyridazin-3(2H)-one] | ≥ 10000 nM
4 | 0.719 nM | O=C(N1CCN(c2ncc(C(F)(F)F)cn2)CC1)N1CCC[C@H](Nc2cc(C(F)(F)F)c(=O)[nH]n2)C1 [Example 39, (S)-4-(trifluoromethyl)-6-((1-(4-(5-(trifluoromethyl)pyrimidin-2-yl)piperazine-1-carbonyl)piperidin-3-yl)amino)pyridazin-3(2H)-one] | 1030 nM
5 | 1.44 nM | O=C(N1CCN(c2ncc(C(F)(F)F)cn2)CC1)C1(CCCc2cc(C(F)(F)F)c(=O)[nH]n2)CC1 [Example 9, 4-(trifluoromethyl)-6-(3-(1-(4-(5-(trifluoromethyl)pyrimidin-2-yl)piperazine-1-carbonyl)cyclopropyl)propyl)pyridazin-3(2H)-one] | 1800 nM
6 | 1.41 nM | O=C(CCC[C@H]1CCCc2c1n[nH]c(=O)c2C(F)(F)F)N1CCN(c2ncc(C(F)(F)F)cn2)CC1 (single isomer, unassigned) [Example 77] | 523 nM
7 | 5.12 nM | O=C([C@H]1CN(Cc2cc(C(F)(F)F)c(=O)[nH]n2)CCO1)N1CCN(c2ncc(C(F)(F)F)cn2)CC1 [Example 75, 5-(trifluoromethyl)-3-[[(2R)-2-[4-[5-(trifluoromethyl)pyrimidin-2-yl]piperazine-1-carbonyl]morpholin-4-yl]methyl]-1H-pyridazin-6-one] | 1350 nM
8 | 2.71 nM | O=C(N1CCN(c2ncc(C(F)(F)F)cn2)CC1)N1CCC[C@@H](Nc2cc(C(F)(F)F)c(=O)[nH]n2)C1 [Example 38, (R)-4-(trifluoromethyl)-6-((1-(4-(5-(trifluoromethyl)pyrimidin-2-yl)piperazine-1-carbonyl)piperidin-3-yl)amino)pyridazin-3(2H)-one] | 1870 nM
9 | – | O=c1[nH]nc(N[C@]23CC[C@](C(=O)N4CCN(c5ncc(C(F)(F)F)cn5)CC4)(C2)C3)cc1C(F)(F)F [Example 48, 5-(trifluoromethyl)-3-[[4-[4-[5-(trifluoromethyl)pyrimidin-2-yl]piperazine-1-carbonyl]-1-bicyclo[2.1.1]hexanyl]amino]-1H-pyridazin-6-one] | ≥ 10000 nM
10 | – | O=c1[nH]nc(NCC2(N3CCN(c4ncc(C(F)(F)F)cn4)CC3)COC2)cc1C(F)(F)F [Example 59, 5-(trifluoromethyl)-3-[[3-[4-[5-(trifluoromethyl)pyrimidin-2-yl]piperazin-1-yl]oxetan-3-yl]methylamino]-1H-pyridazin-6-one] | ≥ 10000 nM
11 | – | O=C(CCCc1ccccc1-c1cc(C(F)(F)F)c(=O)[nH]n1)N1CCN(c2ncc(C(F)(F)F)cn2)CC1 [Example 5, 6-(2-(4-oxo-4-(4-(5-(trifluoromethyl)pyrimidin-2-yl)piperazin-1-yl)butyl)phenyl)-4-(trifluoromethyl)pyridazin-3(2H)-one] | ≥ 10000 nM
12 | – | O=c1[nH]nc(N[C@]23CO[C@](C(=O)N4CCN(c5ncc(C(F)(F)F)cn5)CC4)(C2)C3)cc1C(F)(F)F [Example 46, 5-(trifluoromethyl)-3-[[1-[4-[5-(trifluoromethyl)pyrimidin-2-yl]piperazine-1-carbonyl]-2-oxabicyclo[2.1.1]hexan-4-yl]amino]-1H-pyridazin-6-one] | ≥ 10000 nM
13 | – | O=C(C[C@@H]1CCc2c1n[nH]c(=O)c2C(F)(F)F)N1CCN(c2ncc(C(F)(F)F)cn2)CC1 [Example 80, (S)-7-(2-oxo-2-(4-(5-(trifluoromethyl)pyrimidin-2-yl)piperazin-1-yl)ethyl)-4-(trifluoromethyl)-2,5,6,7-tetrahydro-3H-cyclopenta[c]pyridazin-3-one] | 429 nM
14 | – | O=C(CCc1ccccc1-c1cc(C(F)(F)F)c(=O)[nH]n1)N1CCN(c2ncc(C(F)(F)F)cn2)CC1 [Example 3, 6-(2-(3-oxo-3-(4-(5-(trifluoromethyl)pyrimidin-2-yl)piperazin-1-yl)propyl)phenyl)-4-(trifluoromethyl)pyridazin-3(2H)-one] | ≥ 10000 nM
15 | – | C[C@@H](Nc1cc(C(F)(F)F)c(=O)[nH]n1)C(=O)N1CCN(c2ncc(C(F)(F)F)cn2)CC1 [Example 66, 3-[[(1R)-1-methyl-2-oxo-2-[4-[5-(trifluoromethyl)pyrimidin-2-yl]piperazin-1-yl]ethyl]amino]-5-(trifluoromethyl)-1H-pyridazin-6-one] | ≥ 10000 nM
16 | – | C[C@H](Nc1cc(C(F)(F)F)c(=O)[nH]n1)C(=O)N1CCN(c2ncc(C(F)(F)F)cn2)CC1 [Example 64, 3-[[(1S)-1-methyl-2-oxo-2-[4-[5-(trifluoromethyl)pyrimidin-2-yl]piperazin-1-yl]ethyl]amino]-5-(trifluoromethyl)-1H-pyridazin-6-one] | 335 nM
17 | – | O=C(c1cccc(Oc2cc(C(F)(F)F)c(=O)[nH]n2)c1)N1CCN(c2ncc(C(F)(F)F)cn2)CC1 [Example 35, 4-(trifluoromethyl)-6-(3-(4-(5-(trifluoromethyl)pyrimidin-2-yl)piperazine-1-carbonyl)phenoxy)pyridazin-3(2H)-one] | ≥ 10000 nM
18 | – | O=C([C@H]1CC[C@@H](Nc2cc(C(F)(F)F)c(=O)[nH]n2)C1)N1CCN(c2ncc(C(F)(F)F)cn2)CC1 [Example 63, 5-(trifluoromethyl)-3-[[(1R,3S)-3-[4-[5-(trifluoromethyl)pyrimidin-2-yl]piperazine-1-carbonyl]cyclopentyl]amino]-1H-pyridazin-6-one] | ≥ 10000 nM
19 | – | O=C([C@H]1CN(c2cc(C(F)(F)F)c(=O)[nH]n2)CCO1)N1CCN(c2ncc(C(F)(F)F)cn2)CC1 [Example 45, (R)-4-(trifluoromethyl)-6-(2-(4-(5-(trifluoromethyl)pyrimidin-2-yl)piperazine-1-carbonyl)morpholino)pyridazin-3(2H)-one] | ≥ 10000 nM
20 | – | O=C(C[C@H]1CCc2c1n[nH]c(=O)c2C(F)(F)F)N1CCN(c2ncc(C(F)(F)F)cn2)CC1 [Example 81, (R)-7-(2-oxo-2-(4-(5-(trifluoromethyl)pyrimidin-2-yl)piperazin-1-yl)ethyl)-4-(trifluoromethyl)-2,5,6,7-tetrahydro-3H-cyclopenta[c]pyridazin-3-one] | ≥ 10000 nM
21 | – | O=C(CCCNc1c[nH]c(=O)c(C(F)(F)F)c1)N1CCN(c2ncc(C(F)(F)F)cn2)CC1 [Example 41, 5-((4-oxo-4-(4-(5-(trifluoromethyl)pyrimidin-2-yl)piperazin-1-yl)butyl)amino)-3-(trifluoromethyl)pyridin-2(1H)-one] | ≥ 10000 nM
22 | – | O=C([C@H]1CC[C@H](Nc2cc(C(F)(F)F)c(=O)[nH]n2)C1)N1CCN(c2ncc(C(F)(F)F)cn2)CC1 [Example 65, 5-(trifluoromethyl)-3-[[(1S,3S)-3-[4-[5-(trifluoromethyl)pyrimidin-2-yl]piperazine-1-carbonyl]cyclopentyl]amino]-1H-pyridazin-6-one] | ≥ 10000 nM
23 | – | CC(C)(CCCc1cc(C(F)(F)F)c(=O)[nH]n1)C(=O)N1CCN(c2ncc(C(F)(F)F)cn2)CC1 [Example 10, 6-(4,4-dimethyl-5-oxo-5-(4-(5-(trifluoromethyl)pyrimidin-2-yl)piperazin-1-yl)pentyl)-4-(trifluoromethyl)pyridazin-3(2H)-one] | ≥ 10000 nM
